# Test results taken from patent US20250222082A1, “PROTEIN AND PEPTIDE VACCINES TARGETING METHANOGENS” (Arkea Bio Corp., priority 2024, published 2025).
# Read-outs that look alike come from different tables or passages of the source.
# How the values were obtained:
# [1] = buffer, 24 h
# Procedure: (§1) The solution was then placed in an ultrasonic bath for ˜4 hr and then allowed to equilibrate over 24 h.
# [2] = tested on: methane production; settings: cited from earlier work
# [3] = Adsorbent study: reduction of 3NOP concentration in solution (HPLC 230 nm); settings: 0.2 g of adsorbent in 10 mL of 1% 3NOP/H2O; 24 h; control 8.258 mM
# Procedure: as §1
# [4] = tested on: Mbb. ruminantium, Ms. mazei, and Mm. mobile; settings: cited from earlier work
# [5] = 3NOP volatility (mass loss in open vial); format: physicochemical; settings: 500 mg in 5 dram vial open to air, ˜18-24 C, 15-30% RH, 6 days
# Procedure: 3NOP Volatility: 500 mg of 3NOP in a 5 dram vial was left open to air at ˜18-24 C at 15-30% RH over the course of 6 days. Average mass loss is ˜0.25% per day.
# [6] = 3NOP pH and temperature stability (HPLC); format: physicochemical; settings: 1-month time period, 4-30 C, pH 4-10
# Description: 3NOP pH and Temperature Stability: Confirmed via HPLC over a 1-month time period at temperature between 4-30 C and pH 4-10.
molecule,measurement,setting,value
NC(=O)CC[C@H](N)C(=O)O [Glutamine],3NOP concentration remaining in solution,[1]; 20 mg/mL,7.588 mM
O=[N+]([O-])O [Nitrate],maximum methane suppression amount,[2]; 5 mM,"5 mM; 43.26% Lin rt al., 2017)"
same,maximum methane suppression amount,[2]; 5 mmol/L,5 mmol/L; 32.92%
same,maximum methane suppression amount,[2]; 20 mg/g dry matter,20 mg/g dry matter; 21%
NCCCC[C@H](N)C(=O)O [Lysine],3NOP concentration remaining in solution,[1]; 50 mg/mL,18.583 mM
O=S(=O)([O-])[O-].O=S(=O)([O-])[O-].O=S(=O)([O-])[O-].[Bi+3].[Bi+3] [Bismuth Sulfate],3NOP concentration remaining in solution,[3],8.079 mM
"O=c1[nH]c(=O)c2nccnc2[nH]1 [lumazin, 2,4-pteridinedione]","CH4 production by Mbb. ruminantium, Ms. mazei, and Mm. mobile",[4]; dose-dependent from 0.06 to 0.24 mmol/L,significantly decreased
"O=[N+]([O-])OCCCO [Group 3NOP, 3-Nitrooxypropanol]",3NOP Volatility: average mass loss,[5],~0.25 % per day
same,3NOP pH and Temperature Stability,[6],Confirmed
same,maximum methane suppression amount,[2]; 60 mg/kg of feed dry matter,"26%/day (Melgar et al., 2020)"
"O=S(=O)(O)CCCBr [BPS, 3-bromopropanesulfonate]",sensitivity of methanogens in pure cultures,"[4]; up to 250 μmol/L, all three species",resistant
O=S(=O)([O-])[O-].[Cu+2] [Copper Sulfate],3NOP concentration remaining in solution,[3],7.814 mM
Cyclodextrin,3NOP concentration remaining in solution,[3],7.676 mM
O=C([O-])CC(O)(CC(=O)[O-])C(=O)[O-].[Bi+3] [Bismuth Citrate],3NOP concentration remaining in solution,[3],8.072 mM
N=C(N)NCCC[C@H](N)C(=O)O [Arginine],3NOP concentration remaining in solution,[1]; 50 mg/mL,19.782 mM
